Source: patent US20250360116A1, “PICOLINIC-2-CARBOXAMIDE HYBRIDIZED WITH ANTHRAQUINONE DERIVATIVES, METHODS OF PREPARATION, AND A PHARMACEUTICAL COMPOSITION COMPRISING THE SAME” (AL-ZAYTOONAH UNIVERSITY OF JORDAN, priority 2023, published 2025)
Marks after values point to notes of the source that are not given here.

Tested on: Triton WR-1339 induced hyperlipidemic Wistar Rats
Assay: Plasma lipid levels in triton WR-1339 induced hyperlipidemia in rats
Assay type: in vivo
Details: for HDL-C (plasma) / LDL-C (plasma) / TC (plasma) / TG (plasma): 20 mg/kg intragastric after triton WR-1339 200 mg/Kg i.p., about 6 hours, mean ± SEM, five rats; for Effect on elevated TC levels / Effect on elevated plasma LDL-C levels / Effect on elevated plasma TG levels / Effect on plasma HDL-C levels: in words, in comparison with HCG, 20 mg/kg intragastric, 6 hours
Method: The study was conducted on twenty-five adult male Wistar Rats weighting 200±10 g. Wistar Rats were bred in the animal care center of Faculty of Pharmacy in Al-Zaytoonah University of Jordan. The animals were kept on 12 hours' light/dark cycle, at room temperature (25±1° C.) with free access to food and water. The rats were divided randomly into five groups each consist of five rats, whereby Group I was the normal control group (“NCG”) that received an intraperitoneal administration of normal saline, Group II was the hyperlipidemic control group (“HCG”) that received an intraperitoneal injection of about 200 mg/Kg triton WR-1339 dissolved in about 4% dimethylsulfoxide (“DMSO”)/corn oil, Groups (III, IV, V) rats received intraperitoneal injection of about 200 mg/Kg triton WR-1339.
After about 6 hours of treatment, the rats were anaesthetized with diethyl ether and blood was collected. The blood samples were immediately centrifuged at about 3000 rpm for about 10 minutes and the serum was used for lipid profile measurements (TG, LDL-C, TC and HDL-C) by an automated chemistry analyzer (Model Erba XL-300, Mannheim, Germany). Furthermore, liver samples were collected, and then kept in liquid nitrogen, and stored at (−80° C.) for the mRNA extraction as described in Example 5 below.
The plasma of TG, TC, LDL-C and HDL-C levels in HCG treated at 6 hours after administration of triton WR-1339 are shown in FIG. 2.
After the injection of Wistar Rats with Triton WR-1339 in Example 3, Groups III, IV, V received an intragastric administration of (20 mg/kg by weight) of compounds C1, C2 and C3, respectively, dissolved in about 4% DMSO/corn oil. FIGS. 3, 4, 5, 6 illustrate bar charts showing the effect of the compounds C1, C2, and C3 on the Triton WR-1339 induced hyperlipidemic Wistar Rats after about 6 hours of treatment on TG, TC, LDL-C, and HDL-C.

Compound	HDL-C (plasma)	LDL-C (plasma)	TC (plasma)	TG (plasma)	Effect on elevated TC levels	Effect on elevated plasma LDL-C levels	Effect on elevated plasma TG levels	Effect on plasma HDL-C levels
O=C(Nc1ccc2c(c1)C(=O)c1ccccc1C2=O)c1ccccn1 [Compound C2, N-(9,10-dioxo-9,10-dihydroanthracen-2-yl) picolinamide]	38 ± 4.4 ^a mg/dl	9 ± 0.6 ^a mg/dl	75 ± 15.2 ^a mg/dl	985 ± 15.3 ^a mg/dl	significantly decreased	significantly lowered	significantly decreased	significantly increased
O=C(Nc1ccc(O)c2c1C(=O)c1ccccc1C2=O)c1ccccn1 [Compound C3, N-(4-hydroxy-9,10-dioxo-9,10-dihydroanthracen-1-yl) picolinamide]	22 ± 2 mg/dL	11 ±1.2 ^ mg/dl	122 ± 11 mg/dL	1375 ± 23 mg/dL	non-significant effect	non-significant effect	non-significant effect	non-significant effect
O=C(Nc1cccc2c1C(=O)c1ccccc1C2=O)c1ccccn1 [Compound C1, N-(9,10-dioxo-9,10-dihydroanthracen-1-yl) picolinamide]	56 ± 4.6 ^b mg/dl	6 ± 0.7 ^b mg/dl	42 ± 10 ^b mg/dl	145 ± 14.2 ^b mg/dl	significantly decreased	significantly lowered	significantly decreased	significantly increased
